Data taken from patent publication US9913857B2, “Composition and methods of screening” (OPTIBIOTIX LIMITED, priority 2013, dated 2018).

Assays:
Bifidobacteria = experiment: Anaerobic cultures, gut bacterial groups by fluorescent in situ hybridisation: Bifidobacteria; format: cell-based; set-up: Bifidobacteria 24: unit not given here; conditions: for Bifidobacteria 24: 24 hours, anaerobic culture, inoculum 6.85; for Bifidobacteria 24 hr % change: 24 hr vs inoculum
Method: (§1) In these experiments, anaerobic cultures were tested to evaluate the in vitro utilisation of a novel Lactobacillus reuteri galactooligosaccharide by monitoring the populations of gut bacterial groups at 24 hours using fluorescent in situ hybridisation, and short-chain fatty acid […]. Fructooligosaccharides (FOS), melibiose and raffinose were used as reference carbohydrates.

Total count = experiment: Anaerobic cultures, gut bacterial groups by fluorescent in situ hybridisation: total count; format: cell-based; set-up: Total count 24: unit not given here; conditions: for Total count 24: 24 hours, anaerobic culture, inoculum 8.84; for Total count 24 hr % change: 24 hr vs inoculum
Method: as §1

E. coli = experiment: Anaerobic cultures, gut bacterial groups by fluorescent in situ hybridisation: E. coli; format: cell-based; set-up: E. coli 24: unit not given here; conditions: for E. coli 24: 24 hours, anaerobic culture, inoculum 8.14; for E. coli 24 hr % change: 24 hr vs inoculum
Method: as §1

Eubacteria = experiment: Anaerobic cultures, gut bacterial groups by fluorescent in situ hybridisation: Eubacteria; format: cell-based; set-up: Eubacteria 24: unit not given here; conditions: for Eubacteria 24: 24 hours, anaerobic culture, inoculum 8.06; for Eubacteria 24 hr % change: 24 hr vs inoculum
Method: as §1

Lactobacilli = experiment: Anaerobic cultures, gut bacterial groups by fluorescent in situ hybridisation: Lactobacilli; format: cell-based; set-up: Lactobacilli 24: unit not given here; conditions: for Lactobacilli 24: 24 hours, anaerobic culture, inoculum 7.15; for Lactobacilli 24 hr % change: 24 hr vs inoculum
Method: as §1

Bacteroides = experiment: Anaerobic cultures, gut bacterial groups by fluorescent in situ hybridisation: Bacteroides; format: cell-based; set-up: Bacteroides 24: unit not given here; conditions: for Bacteroides 24: 24 hours, anaerobic culture, inoculum 7.98; for Bacteroides 24 hr % change: 24 hr vs inoculum
Method: as §1

Clostridia = experiment: Anaerobic cultures, gut bacterial groups by fluorescent in situ hybridisation: Clostridia; format: cell-based; set-up: Clostridia 24: unit not given here; conditions: for Clostridia 24: 24 hours, anaerobic culture, inoculum 7.55; for Clostridia 24 hr % change: 24 hr vs inoculum
Method: as §1

Lactobacilli strains = experiment: Bacterial growth curve with lactose as growth medium; format: cell-based, Lactobacillus; conditions: around 13 hours, from approximately 6.5, L. plantarum, L. casei, L. salivarius, L. rhanmosus, L. delbrueckii
Method: Bacterial growth curve determination was undertaken by sampling cultures at 0 h, 3 h, 5 h, 8 and 24 h intervals using a 100 μL of dilution series of culture in 900 μL PBS. 20 μL of each series was spread onto a jar and with a negative control and growth assessed.
Bacterial count of several of the strains was assessed by using 0.1% lactose as the growth medium.
Bacterial count of several of the strains was assessed by using 5% lactose as the growth medium. FIGS. 2A-2G show the bacterial count over time using 5% lactose as a growth medium for L. plantarum, L. casei, L. salivarius, L. delbrueckii, L. rhanmosus, L. acidophilus and L. helveticus.

Row | SMILES | Bifidobacteria 24 (Bifidobacteria) | Bifidobacteria 24 hr % change (Bifidobacteria) [%] | Total count 24 (Total count) | Total count 24 hr % change (Total count) [%] | E. coli 24 (E. coli) | E. coli 24 hr % change (E. coli) [%] | Eubacteria 24 (Eubacteria) | Eubacteria 24 hr % change (Eubacteria) [%] | Lactobacilli 24 (Lactobacilli) | Lactobacilli 24 hr % change (Lactobacilli) [%] | Bacteroides 24 (Bacteroides) | Bacteroides 24 hr % change (Bacteroides) [%] | Clostridia 24 (Clostridia) | Clostridia 24 hr % change (Clostridia) [%] | bacterial count (Lactobacilli strains; 0.1% lactose as growth medium, L. fermentum) | bacterial count (Lactobacilli strains; 5% lactose as growth medium, L. acidophilus, L. helveticus)
1 | OC[C@H]1O[C@H](OC[C@H]2O[C@H](O[C@]3(CO)O[C@H](CO)[C@@H](O)[C@@H]3O)[C@H](O)[C@@H](O)[C@@H]2O)[C@H](O)[C@@H](O)[C@H]1O [Raffinose, raffinose] | 7.69 | 112 | 9.19 | 104 | 8.03 | 99 | 8.69 | 108 | 7.45 | 104 | 8.08 | 101 | 7.81 | 103 |  | 
2 | OC[C@H]1O[C@@H](O[C@H]2[C@H](O)[C@@H](O)C(O)O[C@@H]2CO)[C@H](O)[C@@H](O)[C@H]1O (stereo partly drawn) [lactose] |  |  |  |  |  |  |  |  |  |  |  |  |  |  | over 9.5 log 10 CFU/ml | over 9.5 log 10 CFU/ml
3 | OC[C@H]1O[C@H](OCC2O[C@@H](O)[C@H](O)[C@@H](O)[C@@H]2O)[C@H](O)[C@@H](O)[C@H]1O (stereo partly drawn) [Melibiose, melibiose] | 7.33 | 107 | 9.14 | 103 | 7.66 | 94 | 7.84 | 97 | 7.43 | 104 | 7.9 | 99 | 7.65 | 101 |  | 
